{"source": "patent US20250161254A1", "about": "“USE OF RETINOIDS FOR TREATMENT OF ATRIAL FIBRILLATION” (NEW YORK UNIVERSITY, priority 2022, published 2025)", "key": {"[1]": {"system": "Mice deficient in ALDH1A2", "conditions": "maternal supplementation with oral ATRA; cited from earlier work"}, "[2]": {"system": "LA samples from TAC banded hearts", "assay": "RNA-seq on LA samples from TAC+V and TAC+ATRA hearts", "assay_type": "in vivo, mice", "from_the_text": "Activation of the AngII signaling pathway in the LA from pressure overload is a powerful inducer of inflammation, fibrosis, and Cx43 gap junction remodeling. Blockade of AngII signaling can reduce atrial fibrosis and partially rescued Cx43 remodeling. ^38,39"}, "[3]": {"system": "TAC banded mice", "assay": "LA fibrosis burden in ATRA reversal study (delayed ATRA initiation)", "conditions": "delayed treatment with ATRA, TAC banding"}, "[4]": {"system": "TAC banded mice", "assay": "ECG in ATRA reversal study (delayed ATRA initiation)", "assay_type": "in vivo", "conditions": "TAC+dATRA vs TAC+dV"}, "[5]": {"system": "trans-aortic constriction (TAC) banded mice", "assay": "Transthoracic echocardiography in TAC banded mice, ATRA protection study", "assay_type": "in vivo", "protocol": "(§1) TAC banding creates a fixed afterload obstruction in the systemic circulation and serves as an excellent model for drug testing as the surgically-induced coarctation cannot be reversed by medical therapy.\nThe effect of TAC banding on left atrial function was measured next by using reservoir strain analysis. 8,30 Left atrial reservoir strain analysis is a sensitive modality to study left atrial mechanics of both relaxation (conduit strain) and contraction (contractile strain) in an angle-independent fashion."}, "[6]": {"system": "trans-aortic constriction (TAC) banded mice", "assay": "Electrocardiogram in TAC banded mice, ATRA protection study", "assay_type": "in vivo", "conditions": "two weeks", "from_the_text": "as §1\nOn ECG, the P wave duration is a measure of atrial activation time, the PR interval is a measure of atrial-to-ventricular activation time that includes the atrio-ventricular nodal conduction time, the QRS duration is a measure of ventricular activation time, and the HR-corrected QT (QTc) interval is a measure of ventricular repolarization time. […] In TAC banded mice treated with vehicle control (TAC+V), the heart rate (HR) was increased, the P wave, QRS wave, and QTc interval durations were prolonged, and the PR interval was shortened compared to Sham groups."}, "[7]": {"system": "chick embryos", "conditions": "excess ATRA; cited from earlier work"}, "[8]": {"system": "guinea pig HF model", "conditions": "cited from earlier work"}, "[9]": {"system": "TLR/NF-KB signaling", "conditions": "diabetic kidney; cited from earlier work"}, "[10]": {"system": "dissociated neonatal rat cardiac fibroblasts", "conditions": "fibroblasts exposed to AngII; cited from earlier work"}, "[11]": {"system": "TAC banded hearts", "assay": "Optical mapping of Langendorff-perfused hearts", "assay_type": "ex vivo, mice", "conditions": "Sham+V, TAC+V and TAC+ATRA hearts compared", "protocol": "Optical mapping of Langendorff-perfused hearts from Sham+V, TAC+V, and TAC+ATRA hearts. (FIG. 6A) Representative left atrial activation maps at 37° C. Hearts were paced at 100 ms basic cycle length (BCL) from the right atria. (FIG. 6B) Calculated LA conduction velocity (CV). (FIG. 6C) Calculated left ventricular CV (FIG. 6D) ECG tracing of sustained atrial arrythmia in TAC+V heart after atrial burst pacing protocol.^6 (FIG. 6E) Left atrial activation map of sustained atrial arrythmia shown in panel (FIG. 6D). Isochrones are drawn 1 ms apart. Data represent mean+S.E.M. n=4-5 per group. One-way ANOVA was used followed by Tukey's test for multiple comparisons to compare differences between experimental groups. * p-value<0.05, ** p-value<0.005, *** p-value<0.001, **** p-value<0.0001"}, "[12]": {"system": "TAC banded hearts", "assay": "Atrial arrhythmia inducibility by atrial burst pacing", "assay_type": "in vivo, mice", "conditions": "TAC+ATRA hearts"}, "[13]": {"system": "TAC banded mice", "assay": "ECG dose-response of ATRA in TAC banded mice", "assay_type": "in vivo"}, "[14]": {"system": "TAC banded mice", "assay": "Left atrial fibrosis burden, ImageJ analysis on Masson's trichrome stained sections", "assay_type": "in vivo", "conditions": "for collagen volume fraction in LA: 10 mg/kg/day IP, two weeks", "from_the_text": "as §1"}, "[15]": {"system": "ALDHIA1 and ALDH1A2", "conditions": "in vivo; cited from earlier work"}, "[16]": {"system": "CYP26", "conditions": "rodents; cited from earlier work"}, "[17]": {"conditions": "GO / REACTOME analysis of normalized genes"}, "[18]": {"conditions": "TAC+ATRA versus TAC+V LA, P<0.05"}, "[19]": {"conditions": "TAC+ATRA vs TAC+V, 10 mg/kg/day IP, two weeks, 10 mg/kg/day"}, "[20]": {"conditions": "TAC+ATRA vs TAC+V, ATRA 10 mg/kg/day IP"}, "[21]": {"conditions": "TAC+ATRA vs TAC+V over the dose range"}}, "note": "“Also recorded” adds a separate entry of the source."}
{"smiles": "CC1=C(/C=C/C(C)=C/C=C/C(C)=C/C(=O)O)C(C)(C)CCC1", "note": "[ATRA, all-trans retinoic acid]", "values": [{"measurement": "atrial defects", "setting": "[1]", "value": "rescue the atrial defects"}, {"measurement": "pathways of ECM production, pro-inflammatory signaling and vasoconstriction", "setting": "[2]; [17]", "value": "significantly downregulated"}, {"measurement": "pathways of mitochondrial energy production and cardiac/atrial development", "setting": "[2]; [17]", "value": "significantly upregulated"}, {"measurement": "left atrial Scn5a expression", "setting": "[2]; TAC banded hearts", "value": "increases"}, {"measurement": "differentially expressed transcripts", "setting": "[2]; [18]", "value": 4133, "unit": "transcripts"}, {"measurement": "transcripts downregulated", "setting": "[2]; [18]", "value": 2058, "unit": "transcripts"}, {"measurement": "transcripts upregulated", "setting": "[2]; [18]", "value": 2075, "unit": "transcripts"}, {"measurement": "DEGs moving in reciprocal direction to the [TAC vs Sham] dataset (normalization)", "setting": "[2]; [TAC+ATRA vs TAC+V] dataset", "value": 1987, "unit": "DEGs"}, {"measurement": "expression of PDGF-A and PDGF-B", "setting": "[2]; pressure overloaded LA", "value": "reduced expression"}, {"measurement": "expression of TLR2, NF-KB signaling components, NLRP3 and IL-1b", "setting": "[2]; pressure overloaded LA", "value": "downregulated"}, {"measurement": "expression of angiotensin converting enzyme (ACE)", "setting": "[2]; pressure overloaded LA", "value": "significantly downregulated"}, {"measurement": "interstitial and perivascular fibrosis", "setting": "[3]", "value": "reverses"}, {"measurement": "P wave duration", "setting": "[4]; 10 mg/kg/day IP started two weeks post-TAC, for two weeks, 10 mg/kg/day", "value": "significantly reduces"}, {"measurement": "PR interval", "setting": "[4]; delayed treatment", "value": "not significantly different; also recorded: unchanged"}, {"measurement": "QRS duration", "setting": "[4]; delayed treatment", "value": "not significantly different; also recorded: unchanged"}, {"measurement": "QTc interval", "setting": "[4]; delayed treatment", "value": "not significantly different; also recorded: unchanged"}, {"measurement": "heart rate (HR)", "setting": "[4]; delayed treatment", "value": "unchanged"}, {"measurement": "echocardiographic measurements of the LA and LV", "setting": "[5]; Sham+ATRA vs Sham+V, normal pressure conditions", "value": "no differences"}, {"measurement": "LV fractional shortening (FS)", "setting": "[5]; [19]", "value": "equally reduced"}, {"measurement": "LV longitudinal strain", "setting": "[5]; [19]", "value": "equally reduced"}, {"measurement": "left atrial mechanics (reservoir strain)", "setting": "[5]; [19]", "value": "significant improvement; also recorded: significantly improved"}, {"measurement": "left ventricular hypertrophy (LV wall thickness)", "setting": "[5]; [19]", "value": "increased in both TAC+V and TAC+ATRA cohorts"}, {"measurement": "ECG measurements", "setting": "[6]; Sham+ATRA vs Sham+V, normal pressure conditions, 10 mg/kg/day IP", "value": "no differences"}, {"measurement": "HR-corrected QT (QTc) interval", "setting": "[6]; [20]", "value": "prolonged equally; also recorded: unchanged"}, {"measurement": "P wave duration", "setting": "[6]; [20]", "value": "prevents P wave prolongation; also recorded: reduced to normal levels"}, {"measurement": "PR interval", "setting": "[6]; [20]", "value": "does not significantly alter; also recorded: unchanged"}, {"measurement": "QRS duration", "setting": "[6]; [20]", "value": "prolonged equally; also recorded: unchanged"}, {"measurement": "heart rate (HR)", "setting": "[6]; [20]", "value": "unchanged"}, {"measurement": "atrial size", "setting": "[7]", "value": "developed enlarged atria"}, {"measurement": "left ventricular systolic function", "setting": "[8]", "value": "improve"}, {"measurement": "ventricular fibrosis", "setting": "[8]", "value": "reduce"}, {"measurement": "production of inflammatory cytokines, chemokines, adhesion molecules and growth factors", "setting": "[9]", "value": "block cytokine, chemokine, and growth factor production; also recorded: blocks production"}, {"measurement": "TGF-β production", "setting": "[10]", "value": "reduces"}, {"measurement": "collagen secretion", "setting": "[10]", "value": "reduces"}, {"measurement": "proliferation", "setting": "[10]", "value": "reduces"}, {"measurement": "left ventricular CV", "setting": "[11]", "value": "not significantly different"}, {"measurement": "hearts with sustained atrial arrhythmia (lasting >30 sec) after atrial burst pacing", "setting": "[12]", "value": "0 out of 3"}, {"measurement": "P wave duration shortening", "setting": "[13]; 20 mg/kg dose compared with 10", "value": "no further shortening"}, {"measurement": "reduction of P wave prolongation, dose dependence", "setting": "[13]; 2, 5, 10, 20 mg/kg daily IP, two weeks", "value": "dose-dependent fashion"}, {"measurement": "ventricular ectopy (potential cardiotoxicity)", "setting": "[13]; ATRA 20 mg/kg daily IP", "value": "increased ventricular ectopy"}, {"measurement": "PR interval", "setting": "[13]; [21]", "value": "no significant dose-dependent effect; also recorded: not significantly changed"}, {"measurement": "QRS duration", "setting": "[13]; [21]", "value": "no significant dose-dependent effect; also recorded: not significantly changed"}, {"measurement": "heart rate", "setting": "[13]; [21]", "value": "no significant dose-dependent effect; also recorded: not significantly changed"}, {"measurement": "ATRA dose of maximal P wave duration shortening", "setting": "[13]; daily IP, two weeks", "value": 10, "unit": "m/kg"}, {"measurement": "collagen volume fraction in LA", "setting": "[14]; Sham+ATRA", "value": "5.3±0.1", "unit": "%"}, {"measurement": "left atrial interstitial and perivascular fibrosis", "setting": "[14]; TAC+ATRA vs TAC+V", "value": "reduced; also recorded: limits"}, {"measurement": "collagen volume fraction in LA", "setting": "[14]; TAC+ATRA", "value": "8.3±0.6", "unit": "%"}]}
{"smiles": "O=C(NCCCCCCCCNC(=O)C(Cl)Cl)C(Cl)Cl", "note": "[WIN18446]", "values": [{"measurement": "ATRA biosynthesis", "setting": "[15]", "value": "efficiently block ATRA biosynthesis"}]}
{"smiles": "CCC(CC)C(c1ccc(Nc2nc3ccccc3s2)cc1)n1cncn1", "note": "(stereo not shown) [talarozole]", "values": [{"measurement": "ATRA levels", "setting": "[16]", "value": "effectively increase ATRA levels"}]}
